Test results as given in ChEMBL document CHEMBL1153744, “Diketopiperazines from the Cordyceps-colonizing fungus Epicoccum nigrum” (J Nat Prod, 2009).
pEC50: −log10 of the molar value.

Assays:
[1] = system: Human immunodeficiency virus 1; experiment: Inhibition of HIV1 viral replication infected in human C8166 cells assessed as suppression of virion-associated p24 antigen production after 4 days by ELISA; format: functional, organism-based; settings: Human immunodeficiency virus 1, C8166, 96 h
[2] = Cytotoxicity against human […] cells after 4 days by MTT assay; format: cell-based

pEC50 [1]	Structure (SMILES)	CC50 at 96 h [2] [µM]
4.55	CN1C(=O)[C@H](Cc2ccccc2)NC(=O)/C1=C/c1ccccc1 [DIPHENYLALAZINE A]	> 100
4.87	CS[C@@]12C[C@H]3C(=O)CC[C@H](O)[C@H]3N1C(=O)[C@]1(SC)C[C@H]3C(=O)CC[C@H](O)[C@H]3N1C2=O [EPICOCCIN G]	> 100
4.37	CS[C@@]12C[C@H]3C(=O)C[C@H](O)[C@H](O)[C@H]3N1C(=O)[C@]1(SC)C[C@H]3C(=O)C[C@H](O)[C@H](O)[C@H]3N1C2=O [EPICOCCIN H]	> 100
